Reference: patent publication US20240016795A1, “BROMODOMAIN INHIBITORS FOR ANDROGEN RECEPTOR-DRIVEN CANCERS” (FORMA Therapeutics, Inc., priority 2020, published 2024)
pIC50: −log10 of the molar value.

Assays:
Assay type in all cases: cell-based
[1] = test system: HCC1187; assay: 10-day CellTiter-Glo antiproliferative assay, HCC1187; details: Homo sapiens, HCC1187, 240 h, 10-day exposure, AR High, ER −, Her2 −
Protocol: (§1) Breast cell lines were cultured according to the distributor's recommendations. The following day, cells were exposed to compounds up to 10 days. Cell viability was assessed using a CellTiter-Glo® assay (Promega) at the end of the incubation period. The growth inhibitory effect was assessed by the concentration inhibiting growth by 50% using a nonlinear regression equation and a variable slope (Graphpad Prism). The mRNA expression levels for the androgen receptor (HUGO: AR) was determined from the DepMap Portal database (release 19Q2).

[2] = test system: MFM223; assay: 10-day CellTiter-Glo antiproliferative assay, MFM223; details: Homo sapiens, MFM-223, 240 h, 10-day exposure, AR Low, ER −, Her2 −
Protocol: as §1

[3] = test system: VCaP; assay: 10-day prostate cancer cell proliferation assay, VCaP; details: Homo sapiens, VCaP, 240 h; 10 days exposure; WT, AR amplification, androgen-dependent
Protocol: (§2) Prostate cell lines were obtained from ATCC or DSMZ and cultured according to the distributor's recommendations. Prostate cancer cells were plated and incubated overnight. […] Cell viability was assessed using a CellTiter-Glo® assay (Promega) after 10 days drug exposure. The growth inhibitory effect was assessed by the concentration inhibiting growth by 50% using a nonlinear regression equation and a variable slope (Graphpad Prism).

[4] = test system: CAL148; assay: 10-day CellTiter-Glo antiproliferative assay, CAL148; details: Homo sapiens, CAL-148, 240 h, 10-day exposure, AR Low, ER −, Her2 −
Protocol: as §1

[5] = test system: 22Rv1; assay: 10-day prostate cancer cell proliferation assay, 22Rv1; details: Homo sapiens, 22Rv1, 240 h; 10 days exposure; H857Y/H857Y, AR v7+, androgen-independent; read-out: IC50, 22Rv1
Protocol: as §2

[6] = test system: MDA-MB-231; assay: 10-day CellTiter-Glo antiproliferative assay, MDA-MB-231; details: Homo sapiens, MDA-MB-231, 240 h, 10-day exposure, AR Low, ER −, Her2 −
Protocol: as §1

[7] = test system: AR; assay: AR protein level by western blot in prostate cancer cells; details: androgen-independent and androgen-dependent prostate cancer cell lines, western blot
[8] = test system: XBP1; assay: Taqman gene expression in AR-positive breast cancer cells, XBP1; details: 24 hours, read-out: IC50, XBP1 mRNA
Protocol: (§3) AR-positive breast cancer cells were exposed to increasing concentrations of compounds for 24 hours. RNA was extracted and gene expression measured using Taqman® assays for TMPRSS2 and XBP1.

[9] = test system: AR-v7; assay: AR-v7 protein level by western blot in prostate cancer cells; details: androgen-independent (AR-v7+) prostate cancer cells, western blot
[10] = test system: TMPRSS2; assay: Taqman gene expression in AR-positive breast cancer cells, TMPRSS2; details: 24 hours, read-out: IC50, TMPRSS2 mRNA
Protocol: as §3

[11] = test system: TMPRSS2; assay: qPCR gene expression in AR-v7+ prostate cancer cells, TMPRSS2; details: 24 h
Protocol: (§4) AR-v7+ prostate cancer cells were exposed to compounds 1, 2, 3, or 4 for 24 h. RNA was extracted and gene expression was measured by qPCR using Taqman® primer-probes. GAPDH was used as a housekeeping gene.

[12] = test system: CAMA1; assay: 10-day CellTiter-Glo antiproliferative assay, CAMA1; details: Homo sapiens, CAMA-1, 240 h, 10-day exposure, AR High, ER +, Her2 −
Protocol: as §1

[13] = test system: MDA-MB-453; assay: 10-day CellTiter-Glo antiproliferative assay, MDA-MB-453; details: Homo sapiens, MDA-MB-453, 240 h; 10-day exposure, CellTiter-Glo; AR High, ER −, Her2 +/−; read-out: IC50 (μM), MDA-MB-453
Protocol: as §1

[14] = test system: BT549; assay: 10-day CellTiter-Glo antiproliferative assay, BT549; details: Homo sapiens, BT-549, 240 h, 10-day exposure, AR Low, ER −, Her2 −
Protocol: as §1

[15] = test system: AR-negative prostate cancer cell lines DU145 and PC-3; assay: 10-day proliferation assay, AR-negative prostate cancer cell lines; details: 10-day assay
Protocol: Two AR-negative prostate cancer cell lines DU145 and PC-3 were also evaluated.
as §2

[16] = test system: KLK3; assay: qPCR gene expression in AR-v7+ prostate cancer cells, KLK3; details: 24 h
Protocol: as §4

[17] = test system: HCC1500; assay: 10-day CellTiter-Glo antiproliferative assay, HCC1500; details: HCC1500, 240 h, 10-day exposure, AR High, ER +, Her2 −
Protocol: as §1

[18] = test system: MYC; assay: qPCR gene expression in AR-v7+ prostate cancer cells, MYC; details: 24 h
Protocol: as §4

| IC50 [1] [µM] | pIC50 [3] | pIC50 [5] | IC50 [6] [µM] | pIC50 [8] | pIC50 [10] | pIC50 [11] | IC50 [13] [µM] | IC50 [14] [µM] | pIC50 [16] | IC50 [17] [µM] | pIC50 [18] | Structure (SMILES) | IC50 [2] [µM] | IC50 [4] [µM] | AR protein level [7] | AR-v7 protein level [9] | IC50 [12] [µM] | antiproliferative effect, AR-negative cell lines [15] |
| --- | --- | --- | --- | --- | --- | --- | --- | --- | --- | --- | --- | --- | --- | --- | --- | --- | --- | --- |
| 0.2 to 0.5 | < 6.00 | 6.00 to 6.30 | > 1 | > 7.00 | < 6.30 | 7.00 to 7.30 | 0.2 to 0.5 | > 1 | 7.00 to 7.30 | 0.5 to 1 | < 7.00 | COC(=O)N1c2ccc3c(nc([C@H](O)c4ccccc4)n3[C@@H]3CCC[C@@H](C(=O)O)C3)c2CC[C@@H]1C [Compound 2, (1R,3R)-3-((S)-2-((R)-hydroxy(phenyl)methyl)-6-(methoxycarbonyl)-7-methyl-6,7,8,9-tetrahydro-3H-imidazo[4,5-f]quinolin-3-yl)cyclohexane-1-carboxylic acid] | > 1 | > 1 | reduction of both full length and variant forms of the AR | reduction of both full length and variant forms of the AR including AR-v7 | < 0.2 | inactive |
| – | – | – | – | – | – | 7.30 to 8.00 | – | – | 7.30 to 8.00 | – | 7.00 to 7.30 | COC(=O)N1c2ccc3c(nc([C@H](O)c4cc(F)ccc4OC(F)F)n3[C@@H]3CCC[C@@H](C(=O)O)C3)c2CC[C@@H]1C [Compound 3, (1R,3R)-3-((S)-2-((R)-(2-(difluoromethoxy)-5-fluorophenyl)(hydroxy)methyl)-6-(methoxycarbonyl)-7-methyl-6,7,8,9-tetrahydro-3H-imidazo[4,5-f]quinolin-3-yl)cyclohexane-1-carboxylic acid] | – | – | – | – | – | – |
